{"source": "patent US8415156B2", "about": "“Recombinant laminin-521” (Biolamina AB, priority 2010, dated 2013)", "molecules": {"B1": {"name": "E-Cadherin: epithelial-cadherin, most abundant cadherin isoform on the human ES cell surface (protein, UniProt P12830 155-882, looked up)", "Cadherin-1": "DWVIPPISCPENEKGPFPKNLVQIKSNKDKEGKVFYSITGQGADTPPVGVFIIERETGWLKVTEPLDRERIATYTLFSHAVSSNGNAVEDPMEILITVTDQNDNKPEFTQEVFKGSVMEGALPGTSVMEVTATDADDDVNTYNAAIAYTILSQDPELPDKNMFTINRNTGVISVVTTGLDRESFPTYTLVVQAADLQGEGLSTTATAVITVTDTNDNPPIFNPTTYKGQVPENEANVVITTLKVTDADAPNTPAWEAVYTILNDDGGQFVVTTNPVNNDGILKTAKGLDFEAKQQYILHVAVTNVVPFEVSLTTSTATVTVDVLDVNEAPIFVPPEKRVEVSEDFGVGQEITSYTAQEPDTFMEQKITYRIWRDTANWLEINPDTGAISTRAELDREDFEHVKNSTYTALIIATDNGSPVATGTGTLLLILSDVNDNAPIPEPRTIFFCERNPKPQVINIIDADLPPNTSPFTAELTHGASANWTIQYNDPTQESIILKPKMALEVGDYKINLKLMDNQNKDQVTTLEVSVCDCEGAAGVCRKAQPVEAGLQIPAILGILGGILALLILILLLLLFLRRRAVVKEPLLPPEDDTRDNVYYYDEEGGGEEDQDFDLSQLHRGLDARPEVTRNDVAPTLMSVPRYLPRPANPDEIGNFIDENLKAADTDPTAPPYDSLLVFDYEGSGSEAASLSSLNSSESDKDQDYDYLNEWGNRFKKLADMYGGGEDD"}}, "key": {"HS181 cells": {"tested_on": "HS181 cells", "assay": "Single cell survival / cell adhesion, 1 day after plating (Example 1)", "format": "cell-based, human", "conditions": "for single cell survival / cells remaining attached 24 hours after plating: O3 medium without any additives, completely dissociated HS181 cells", "method": "Human ES cells were cultured on r-laminin-521-coated laboratory dishes in chemically defined O3 medium (described in Rodin et al., Nature Biotechnol., vol. 28, pp. 611-615 (2010)) at 37° C. in 5% CO2. Cells were routinely passed once every 10-12 days by exposure to Trypsin-EDTA solution (GIBCO Invitrogen) for 5 minutes at 37° C. They were then gently pipetted to break into single-cell suspension and defined trypsin inhibitor (GIBCO Invitrogen) was added. The cell suspension was centrifuged […], the supernatant discarded, the cell pellet resuspended in prewarmed O3 medium, and cells were then passed through a 40 μm sieve. After that cells were plated on new r-laminin-521-coated dishes at a concentration 30 Kcells/cm^2 (1:25-1:30 split ratio). Cells were fed once a day with fresh medium prewarmed in an incubator for 1 hour, except for the first day after a passage, when only a few drops of fresh medium were added. Control cells of the same line were cultured on Matrigel (BD Biosciences) in O3 medium as described in Rodin et al., Nature Biotechnol., vol. 28, pp. 611-615 (2010). Control cells were passaged in pieces.\nNinety-six-well tissue cell culture plates were coated overnight at 4° C. with sterile solutions of the ECM proteins mouse LN-111 (Invitrogen), human recombinant LN-511, and human recombinant LN-521, all at a concentration of 30 μg/ml (5 μg/cm^2). For control cells, BD Matrigel™ hESC qualified (BD Biosciences) was used according to the manufacturer's instructions.\nThe assay was performed as described (Extracellular Matrix Protocols, 2000). Briefly, 96-well plates were coated by extracellular matrix proteins as described above and blocked by O3 medium containing bovine serum albumin. The ES cells were plated at a cell density of 600 cell/mm^2 upon extracellular matrix-coated plates and were left to adhere for either 1 hour or 1 day at the cell incubator. Non-adherent cells were washed away, and adherent cells were fixed for 20 min by 5% glutaraldehyde, stained by 0.1% Crystal Violet."}, "hES cells [1]": {"tested_on": "hES cells", "assay": "Cell survival assay, 24 hours (Example 2)", "format": "cell-based, human", "conditions": "for survival of hES cells plated from single cell suspension after 24 hours: O3 medium, absence of ROCK inhibitor", "method": "Tissue cell culture plates were coated overnight at 4° C. with sterile solutions of the ECM proteins, such as human recombinant LN-521, all at a concentration of 30 μg/ml (5 μg/cm^2). Control plates were coated with Matrigel according to the STEMCELL Technologies' instructions. Prior to use, dishes were pre-warmed in an incubator for one hour after which prewarmed O3 medium was added without additional washing of the dish. After applying a fresh LN-521 solution to a new dish, the remaining LN-521 solution could be used at least once more. All the adhesion, survival, and inhibition of survival experiments were carried out using fresh coating materials.\nBriefly, 96-well plates were coated by extracellular matrix proteins as described above and blocked by O3 medium containing bovine serum albumin. The ES cells were plated at cell density of 50,000 cells/cm^2 onto extracellular matrix-coated plates and left to adhere for 1 hour in a cell incubator. After that the plates were washed 3 times with the medium to remove the non-adherent cells, and then the adherent cells were fixed for 20 minutes by 5% glutaraldehyde, stained by 0.1% Crystal Violet. (Kebo Lab, Spanga, Sweden, www.kebolab.se). After one hour and 3 washes with water, Crystal Violet was extracted with 10% acetic acid and quantified by measuring optical density at 570 nm. All the experiments were performed in quadruplicate.\nThe survival assay was performed as described for the cell adhesion assay above, except that the cells were left in the cell incubator for 24 hours. For inhibition of survival assay, the cells were kept in a medium with function blocking antibodies at the concentrations recommended by the manufacturer or pathway inhibitors at concentrations indicated in the text for 30 minutes, and then plated on the coated dishes. All the experiments were performed in quadruplicate.\nPluripotent hES cells express α1, α5, β1, β2 and γ1 laminin chains. To compare the adhesion and clonal survival of hES cells plated from single cell suspension to different coating substrata, hES cells growing as monolayers on LN-511 or as clusters on a feeder layer were trypsinized into single cell suspension in O3 medium and plated on cell culture dishes coated with Matrigel, LN-111, LN-511, LN-521 or a mixture of LN-511 and LN-521, in the absence or presence of a ROCK inhibitor (Y-27632) and analyzed after 24 hours."}, "myosin light chain (MLC)": {"tested_on": "myosin light chain (MLC)", "assay": "Western blot of phosphorylated myosin light chain", "format": "cell-based, human", "conditions": "one and six hours after plating", "method": "HS181 cells were trypsinized into single cell suspension as described above. For inhibition experiments, the cells were kept in O3 medium with blocking antibodies or pathway inhibitors for 30 minutes and then 450K cells were plated on 35 mm dishes precoated with the appropriate matrix coating. For other experiments, same number of cells was plated directly after trypsinization. […] After two washings in ice-cold PBS, the plates with cells were snap frozen in liquid nitrogen and stored at −80° C. To prepare samples for western blots and ELISA, the plates were slowly thawed and kept on ice with 100-150 μl of lysis buffer (50 mM Tris-HCl, pH7.5, 150 mM NaCl, 0.5% deoxycholate, 0.5% SDS, 1% Triton X-100, 1% Igepal, Complete™ (Roche) and Phospho-Stop™ (Roche)) on top. Then, the cells were scraped, pipetted and sheared through a 27G ¾″ needle. After that, the cell pellets were clarified by centrifugation at 16,100 rcf for 15 minutes at 4° C. For western blots, 4-12% gradient gels were used for SDS electrophoresis and the proteins were transferred to PVDF membranes. The membrane was hybridized with the antibody of interest according to the manufacturer's instructions. Chemoluminescent HRP-substrate from Amersham Biosciences was used for visualization. For the densitometry analysis the films were scanned at 2,400 dpi and analyzed by the Chemilmager5500 program (1D-Multi Line densitometry mode). […]"}, "[2]": {"tested_on": "human embryonic stem cell", "assay": "Survival after dissociation into single cell suspension (description)", "format": "cell-based", "conditions": "O3 medium; 30 Kcells/cm^2; precoated dishes", "from_the_text": "In other aspects, the present disclosure provides a new material, isolated laminin-521, which permits human embryonic stem cell survival after dissociation into single cell suspension. The stem cells were dissociated into single cell suspension by Trypsin-EDTA treatment, pelleted by centrifugation, resuspended into O3 medium, filtered through a 40 μm sieve, and plated at a density of 30 Kcells/cm^2 on cell culture dishes precoated by either isolated laminin-521, laminin-511, or Matrigel. After one day in culture, the cells plated on Matrigel died, as is known in the art."}, "Integrin α6β1": {"target": "Integrin α6β1 (Homo sapiens, UniProt P05556+P23229)", "sequence (P23229 24-1130)": "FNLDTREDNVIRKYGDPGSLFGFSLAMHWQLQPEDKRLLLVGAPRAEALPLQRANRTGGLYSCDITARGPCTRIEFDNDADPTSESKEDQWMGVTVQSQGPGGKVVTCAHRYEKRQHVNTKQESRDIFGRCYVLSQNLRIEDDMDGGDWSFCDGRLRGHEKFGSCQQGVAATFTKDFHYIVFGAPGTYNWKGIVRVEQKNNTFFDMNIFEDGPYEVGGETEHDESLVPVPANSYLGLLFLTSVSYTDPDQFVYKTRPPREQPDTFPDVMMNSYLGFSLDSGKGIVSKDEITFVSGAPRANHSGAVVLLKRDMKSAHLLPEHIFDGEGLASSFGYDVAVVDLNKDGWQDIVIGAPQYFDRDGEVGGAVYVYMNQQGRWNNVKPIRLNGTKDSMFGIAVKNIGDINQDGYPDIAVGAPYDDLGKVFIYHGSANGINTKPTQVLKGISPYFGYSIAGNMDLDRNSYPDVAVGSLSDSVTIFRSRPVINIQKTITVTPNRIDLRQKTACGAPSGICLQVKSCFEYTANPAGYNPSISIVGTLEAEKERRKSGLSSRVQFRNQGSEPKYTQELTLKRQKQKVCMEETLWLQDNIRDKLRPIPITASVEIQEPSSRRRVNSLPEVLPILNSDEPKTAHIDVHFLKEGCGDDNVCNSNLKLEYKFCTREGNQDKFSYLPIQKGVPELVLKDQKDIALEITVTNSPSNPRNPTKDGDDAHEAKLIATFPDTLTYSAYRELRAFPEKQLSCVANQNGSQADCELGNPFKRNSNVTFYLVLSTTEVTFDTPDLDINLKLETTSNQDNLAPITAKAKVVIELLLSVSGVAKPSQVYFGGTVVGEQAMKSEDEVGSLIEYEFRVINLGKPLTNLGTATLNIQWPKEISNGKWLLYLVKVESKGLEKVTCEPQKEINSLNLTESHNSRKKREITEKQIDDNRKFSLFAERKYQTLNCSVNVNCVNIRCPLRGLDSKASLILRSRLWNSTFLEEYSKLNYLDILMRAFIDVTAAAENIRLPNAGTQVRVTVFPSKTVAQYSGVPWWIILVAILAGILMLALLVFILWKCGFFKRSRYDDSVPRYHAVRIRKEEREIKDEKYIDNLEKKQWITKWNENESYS", "sequence (P05556 21-798)": "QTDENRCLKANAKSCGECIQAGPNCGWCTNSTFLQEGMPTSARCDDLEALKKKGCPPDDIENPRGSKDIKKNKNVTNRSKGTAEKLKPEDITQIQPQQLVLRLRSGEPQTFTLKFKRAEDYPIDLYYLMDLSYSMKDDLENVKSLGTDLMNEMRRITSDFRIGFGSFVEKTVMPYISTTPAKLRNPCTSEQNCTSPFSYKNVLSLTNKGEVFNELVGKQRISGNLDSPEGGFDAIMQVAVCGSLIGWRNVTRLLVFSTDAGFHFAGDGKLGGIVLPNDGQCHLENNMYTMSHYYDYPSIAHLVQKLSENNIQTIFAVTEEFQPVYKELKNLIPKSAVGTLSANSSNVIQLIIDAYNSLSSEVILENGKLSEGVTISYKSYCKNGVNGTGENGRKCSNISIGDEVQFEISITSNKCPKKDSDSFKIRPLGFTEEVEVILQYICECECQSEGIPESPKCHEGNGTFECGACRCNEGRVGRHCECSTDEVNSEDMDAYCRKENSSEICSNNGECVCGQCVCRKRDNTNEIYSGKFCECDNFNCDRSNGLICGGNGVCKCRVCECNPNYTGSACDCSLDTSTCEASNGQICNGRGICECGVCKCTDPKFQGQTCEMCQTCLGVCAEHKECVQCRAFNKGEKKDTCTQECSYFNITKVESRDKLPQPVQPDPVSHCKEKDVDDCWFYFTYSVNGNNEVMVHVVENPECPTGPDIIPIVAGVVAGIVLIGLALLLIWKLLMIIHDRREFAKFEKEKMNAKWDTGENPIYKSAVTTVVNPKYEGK", "conditions": "cited from earlier work"}, "human ES cells": {"tested_on": "human ES cells", "conditions": "cited from earlier work"}, "mouse ES cells": {"tested_on": "mouse ES cells", "conditions": "without LIF or feeder cells; cited from earlier work"}, "hES cells [3]": {"tested_on": "hES cells", "assay": "Clonal survival of individualized hES cells (Example 4)", "format": "cell-based, human", "conditions": "mTeSR1", "method": "hES cells were plated in mTeSR1 medium on different coatings at a density of 250 cells per cm^2 and monitored after 5 days in culture using an alkaline phosphatase staining kit.\nNext, combinations of laminin-521 and E-Cadherin were tested to determine whether the combinations could sustain clonal survival of the cells. Fixed amounts of laminin-521 were used for the cell culture dish coating in combination with titrated E-Cadherin.\nAdditional tests were performed to test the effects of various modifications to the mTeSR1 medium. A mixture of E-Cadherin to laminin-521 in a ratio of about 1:10 w/w was used to coat the plates. […] Time-lapse photography of the cells confirmed that laminin-521/E-Cadherin coatings facilitated cell survival through proliferation of the single cells, not through the aggregation of different cells."}}}
{"molecule": "C[C@@H](N)[C@H]1CC[C@H](C(=O)Nc2ccncc2)CC1", "note": "[Y-27632, reference compound]", "values": [{"measurement": "cells remaining attached after one day with ROCK inhibitor", "setting": "HS181 cells; O3 medium treated with Y-27632, 5 coatings", "value": "remained attached on all 5 coatings"}, {"measurement": "cell shape of cells growing on LN-521 24 hours after plating", "setting": "hES cells [1]; LN-521 row: absence of ROCK inhibitor, Y-27632 row: presence of ROCK inhibitor", "value": "spindle or crescent like shape"}, {"measurement": "survival of hES cells after 24 hours in the presence of ROCK inhibitor", "setting": "hES cells [1]; all coating surfaces", "value": "survived on all surfaces"}]}
{"molecule": "LN-111: mouse laminin-111 (Invitrogen), indicated as LN-111 if not otherwise stated", "values": [{"measurement": "single cell survival / cells remaining attached 24 hours after plating", "setting": "HS181 cells", "value": "almost no cells remained attached"}, {"measurement": "survival of hES cells plated from single cell suspension after 24 hours", "setting": "hES cells [1]", "value": "did not survive"}]}
{"molecule": "LN-121: human recombinant laminin with α1, β2 and γ1 chains produced in HEK293 cells", "values": [{"measurement": "survival of hES cells plated from single cell suspension after 24 hours", "setting": "hES cells [1]", "value": "failed to survive"}]}
{"molecule": "LN-511: human recombinant laminin-511 coating", "values": [{"measurement": "single cell survival / cells remaining attached 24 hours after plating", "setting": "HS181 cells", "value": "at a less extent"}, {"measurement": "survival of hES cells plated from single cell suspension after 24 hours", "setting": "hES cells [1]", "value": "did so as single cells"}, {"measurement": "phosphorylation of MLC compared with cells on Matrigel and LN-111", "setting": "myosin light chain (MLC)", "value": "even higher"}, {"measurement": "survival of hES cells plated from single cell suspension after one day in culture", "setting": "[2]", "value": "in most cases on laminin-511 survived and started to proliferate"}, {"measurement": "binding affinity of integrin α6β1", "setting": "Integrin α6β1", "value": "higher than that for LN-111"}, {"measurement": "time human ES cells maintain pluripotency and can generate teratomas in SCID mice", "setting": "human ES cells", "value": "over 3 months"}, {"measurement": "time of supported self-renewal of mouse ES cells", "setting": "mouse ES cells", "value": "over 5 months"}]}
{"molecule": "albumin: albumin of the mTeSR1 medium, concentration increased 2×", "values": [{"measurement": "effect of 2× increase in albumin concentration on clonal survival", "setting": "hES cells [3]; laminin-521/E-Cadherin matrix", "value": "significantly improved clonal survival"}]}
{"molecule": "human recombinant LN-111: human recombinant laminin with α1, β1 and γ1 chains produced in HEK293 cells", "values": [{"measurement": "survival of hES cells plated from single cell suspension after 24 hours", "setting": "hES cells [1]", "value": "failed to survive"}]}
{"molecule": "B1", "values": [{"measurement": "clonal survival of individualized hES cells", "setting": "hES cells [3]; 250 cells per cm^2, 5 days, alkaline phosphatase staining", "value": "Neither laminin-521 nor E-Cadherin alone permitted efficient clonal survival"}]}
